Data: paper PMC12114840, “Exploring the Anticancer Properties of 1,2,3-Triazole-Substituted Andrographolide Derivatives” (Pharmaceuticals, 2025)

Key:
A375 cells (melanoma) = assay: Sulforhodamine B (SRB) antiproliferative assay, A375; type: cell-based; details: Homo sapiens, A-375, A375, 48 h, mean ± SEM of four to six independent experiments
Method: (§1) The antiproliferative properties of andrographolide and all prepared derivatives (2–26) were evaluated against a panel of different cancer cell lines, including human pancreatic ductal adenocarcinoma (PANC-1), colorectal adenocarcinoma (HCT116), melanoma (A375), breast adenocarcinoma (MCF-7) and a non-tumorigenic colon (CCD-18Co) cell line using the sulforhodamine B assay.
(§2) Human breast adenocarcinoma MCF-7, pancreatic ductal adenocarcinoma PANC-1, melanoma A375, and non-tumorigenic colon CCD-18Co cell lines were purchased from ATCC (Rockville, MD, USA). Human colorectal adenocarcinoma HCT116 cells were kindly provided by B. Vogelstein (The Johns Hopkins Kimmel Cancer Center, Baltimore, MD, USA). Tumor cells were routinely cultured in RPMI-1640 medium with UltraGlutamine from Biowest (VWR, Carnaxide, Portugal) supplemented with 10% fetal bovine serum (FBS) from Biowest (VWR, Carnaxide, Portugal), except for the PANC-1 cells, which were grown in DMEM (4.5 g/L glucose) with stable L-glutamine and sodium pyruvate and supplemented with 10% FBS. The non-tumorigenic CCD-18Co cells were cultured in EMEM (Lonza, VWR, Carnaxide, Portugal), supplemented with 10% FBS. All cells were incubated at 37 °C in a humidified atmosphere of 5% CO2. Routine mycoplasma testing was performed using the MycoAlert™ PLUS mycoplasma detection kit (Lonza).
(§3) For the evaluation of the compound effect on cell proliferation, human cell lines were seeded in 96-well plates at a density of 5.0 × 10^3 (HCT116, MCF-7, PANC-1, A375, and CCD-18Co) cells per well, for 24 h. Cells were then treated with serial dilutions of the compound (ranging from 0.63 to 30 µM), for an additional 48 h incubation period. The growth inhibitory effects were assessed by SRB assay, as described in [58], and the half-maximal inhibitory concentration (IC50 values) were determined for each cell line using the GraphPad Prism software version 7.0 (La Jolla, CA, USA). Culture medium containing a maximum of 0.05% dimethyl sulfoxide (DMSO) was used as negative control.

[1] = test system: HCT116 cells (colorectal adenocarcinoma); assay: Sulforhodamine B (SRB) antiproliferative assay, HCT116; type: cell-based; details: Homo sapiens, HCT-116, HCT116, 48 h, mean ± SEM of four to six independent experiments
Method: as §1, §2, §3

[2] = test system: PANC-1 cells (pancreatic ductal adenocarcinoma); assay: Sulforhodamine B (SRB) antiproliferative assay, PANC-1; type: cell-based, human; details: Homo sapiens; PANC-1, 48 h, SRB; mean ± SEM of four to six independent experiments
Method: as §1, §2, §3

[3] = test system: CCD-18Co cells (non-tumorigenic colon); assay: Sulforhodamine B (SRB) antiproliferative assay, CCD-18Co; type: cell-based; details: Homo sapiens, CCD-18Co non-tumorigenic, 48 h, mean ± SEM of four to six independent experiments
Method: as §1, §2, §3

[4] = test system: MCF-7 cells (breast adenocarcinoma); assay: Sulforhodamine B (SRB) antiproliferative assay, MCF-7; type: cell-based; details: Homo sapiens, MCF7, MCF-7, 48 h, mean ± SEM of four to six independent experiments
Method: as §1, §2, §3

Compound | IC50 (A375 cells (melanoma)) | IC50 [1] | IC50 [2] | IC50 [3] | IC50 [4]
C=C1CC[C@@H]2[C@](C)(COC(C)=O)[C@H](OC(C)=O)CC[C@@]2(C)[C@@H]1C[C@H](C1=CCOC1=O)n1cc(-c2ccc(N)cc2)nn1 [Compound 13, (12R)-4-aniline-1,2,3-triazole-3,19-diacetoxy-14-deoxy-andrographolide] | 6.8 ± 0.9 µM | 4.8 ± 1.3 µM | 6.5 ± 0.4 µM | 30 ± 2 µM | 26 ± 3 µM
C=C1CC[C@@H]2[C@](C)(CO)[C@H](O)CC[C@@]2(C)[C@@H]1C/C=C1/C(=O)OC[C@H]1O [Compound 1, andrographolide] | 4 ± 0.1 µM | 5.1 ± 1.5 µM | 3.1 ± 0.1 µM | 6.2 ± 1.1 µM | 13.5 ± 0.5 µM
COc1cc([C@@H]2c3cc4c(cc3[C@@H](O[C@@H]3O[C@@H]5CO[C@@H](C)O[C@H]5[C@H](O)[C@H]3O)[C@H]3COC(=O)[C@H]23)OCO4)cc(OC)c1O [Etoposide, reference compound] | 0.82 ± 0.07 µM | 0.65 ± 0.09 µM | 2.8 ± 0.05 µM | 0.76 ± 0.01 µM | 1.8 ± 0.03 µM
C=C1CC[C@@H]2[C@](C)(COC(C)=O)[C@H](OC(C)=O)CC[C@@]2(C)[C@@H]1C/C=C1/C(=O)OC[C@H]1OC(C)=O [Compound 2, 3,14,19-Triacetyl Andrographolide] | 1.2 ± 0.2 µM | 1.4 ± 0.1 µM | 1.9 ± 0.2 µM | 5.6 ± 1.3 µM | 4.9 ± 0.1 µM
C=C1CC[C@@H]2[C@](C)(COC(C)=O)[C@H](OC(C)=O)CC[C@@]2(C)[C@@H]1C[C@H](C1=CCOC1=O)n1cc(CNC(=O)OC(C)(C)C)nn1 [Compound 7, (12R)-4-(tert-butylmethyl carbamate)-1,2,3-triazole-3,19-diacetoxy-14-deoxy-andrographolide] | 3.6 ± 0.9 µM | 1.6 ± 0.4 µM | 4.1 ± 0.3 µM | 12.9 ± 2.2 µM | 18 ± 0.1 µM
C=C1CC[C@@H]2[C@](C)(COC(C)=O)[C@H](OC(C)=O)CC[C@@]2(C)[C@@H]1C[C@@H](C1=CCOC1=O)n1cc(Cc2ccccc2)nn1 [Compound 9, (12S)-4-benzyl-1,2,3-triazole-3,19-diacetoxy-14-deoxy andrographolide] | 2.1 ± 0.3 µM | 1.9 ± 0.6 µM | 2 ± 0.1 µM | 3.8 ± 0.9 µM | 8.1 ± 0.1 µM
C=C1CC[C@@H]2[C@](C)(COC(C)=O)[C@H](OC(C)=O)CC[C@@]2(C)[C@@H]1C[C@@H](C1=CCOC1=O)n1cc(-c2ccsc2)nn1 [Compound 26, (12S)-4-(3-thiophene)-1,2,3-triazole-3,19-diacetoxy-14-deoxy-andrographolide] | 1.4 ± 0.1 µM | 1.3 ± 0.1 µM | 4.3 ± 1.4 µM | 6.2 ± 1.4 µM | 6.1 ± 0.2 µM
C=C1CC[C@@H]2[C@](C)(COC(C)=O)[C@H](OC(C)=O)CC[C@@]2(C)[C@@H]1C[C@@H](N=[N+]=[N-])C1=CCOC1=O [Compound 3, (12R)-azido-3,19-diacetoxy-14-deoxy-andrographolide] | 1.3 ± 0.1 µM | 7.9 ± 2.1 µM | 1.9 ± 0.1 µM | 3.8 ± 0.7 µM | 6.6 ± 0.1 µM
C=C1CC[C@@H]2[C@](C)(COC(C)=O)[C@H](OC(C)=O)CC[C@@]2(C)[C@@H]1C[C@H](C1=CCOC1=O)n1cc(-c2ccc(C#N)cc2)nn1 [Compound 14, (12R)-4-benzonitrile-1,2,3-triazole-3,19-diacetoxy-14-deoxy-andrographolide] | 1.7 ± 0.2 µM | 2 ± 0.6 µM | 2.5 ± 0.3 µM | 3.7 ± 0.9 µM | 7.9 ± 0.6 µM
C=C1CC[C@@H]2[C@](C)(COC(C)=O)[C@H](OC(C)=O)CC[C@@]2(C)[C@@H]1C[C@H](C1=CCOC1=O)n1cc(-c2ccccc2)nn1 [Compound 10, (12R)-4-phenyl-1,2,3-triazole-3,19-diacetoxy-14-deoxy-andrographolide] | 7.7 ± 1 µM | 2.2 ± 0.1 µM | 3.8 ± 0.7 µM | 7.2 ± 0.6 µM | 7.8 ± 0.8 µM
C=C1CC[C@@H]2[C@](C)(COC(C)=O)[C@H](OC(C)=O)CC[C@@]2(C)[C@@H]1C[C@@H](C1=CCOC1=O)n1cc(-c2ccc(OC)cc2)nn1 [Compound 17, (12S)-4-(4-methoxyphenyl)-1,2,3-triazole-3,19-diacetoxy-14-deoxy-andrographolide] | 0.9 ± 0.1 µM | 1.7 ± 0.5 µM | 2.1 ± 0.1 µM | 4.4 ± 0.9 µM | 5.6 ± 0.2 µM
C=C1CC[C@@H]2[C@](C)(COC(C)=O)[C@H](OC(C)=O)CC[C@@]2(C)[C@@H]1C[C@@H](C1=CCOC1=O)n1cc(-c2ccccc2)nn1 [Compound 11, (12S)-4-phenyl-1,2,3-triazole-3,19-diacetoxy-14-deoxy-andrographolide] | 8.2 ± 0.1 µM | 1.9 ± 0.3 µM | 3.4 ± 0.6 µM | 3.3 ± 0.4 µM | 4.2 ± 0.8 µM
C=C1CC[C@@H]2[C@](C)(COC(C)=O)[C@H](OC(C)=O)CC[C@@]2(C)[C@@H]1C[C@H](C1=CCOC1=O)n1cc(Cc2ccccc2)nn1 [Compound 8, (12R)-4-benzyl-1,2,3-triazole-3,19-diacetoxy-14-deoxy-andrographolide] | 23 ± 2 µM | 2.1 ± 0.6 µM | 3.1 ± 0.4 µM | 8.7 ± 1.9 µM | 15.5 ± 0.5 µM
C=C1CC[C@@H]2[C@](C)(COC(C)=O)[C@H](OC(C)=O)CC[C@@]2(C)[C@@H]1C[C@H](C1=CCOC1=O)n1cc(-c2ccccn2)nn1 [Compound 24, (12R)-4-pyridine-1,2,3-triazole-3,19-diacetoxy-14-deoxy-andrographolide] | 1.3 ± 0.3 µM | 6.7 ± 3.2 µM | 1.8 ± 0.1 µM | 4.6 ± 1.4 µM | 7 ± 0.2 µM
C=C1CC[C@@H]2[C@](C)(COC(C)=O)[C@H](OC(C)=O)CC[C@@]2(C)[C@@H]1C[C@@H](C1=CCOC1=O)n1cc(-c2ccc(-c3ccccc3)cc2)nn1 [Compound 21] | 1.3 ± 0.3 µM | 1.2 ± 0.2 µM | 3.5 ± 0.3 µM | 4.4 ± 0.8 µM | 10.4 ± 0.7 µM
C=C1CC[C@@H]2[C@](C)(COC(C)=O)[C@H](OC(C)=O)CC[C@@]2(C)[C@@H]1C[C@H](C1=CCOC1=O)n1cc(C(=O)OCC)nn1 [Compound 6, (12R)-4-propriolate-1,2,3-triazole-3,19-diacetoxy-14-deoxy-andrographolide] | 1.3 ± 0.3 µM | 1.2 ± 0.1 µM | 3.4 ± 0.9 µM | 4.4 ± 0.2 µM | 3.8 ± 0.2 µM
C=C1CC[C@@H]2[C@](C)(COC(C)=O)[C@H](OC(C)=O)CC[C@@]2(C)[C@@H]1C[C@H](C1=CCOC1=O)n1cc(-c2ccc(OC(F)(F)F)cc2)nn1 [Compound 18] | 6.6 ± 0.8 µM | 3.7 ± 0.5 µM | 3.5 ± 1.6 µM | 5.1 ± 0.1 µM | 9.5 ± 0.5 µM
C=C1CC[C@@H]2[C@](C)(COC(C)=O)[C@H](OC(C)=O)CC[C@@]2(C)[C@@H]1C[C@H](N=[N+]=[N-])C1=CCOC1=O [Compound 4, (12S)-azido-3,19-diacetoxy-14-deoxy-andrographolide] | 1.2 ± 0.2 µM | 1.5 ± 0.2 µM | 3 ± 0.2 µM | 2.2 ± 0.8 µM | 6.9 ± 0.8 µM
C=C1CC[C@@H]2[C@](C)(COC(C)=O)[C@H](OC(C)=O)CC[C@@]2(C)[C@@H]1C[C@H](C1=CCOC1=O)n1cc(-c2ccsc2)nn1 [Compound 25, (12R)-4-(3-thiophene)-1,2,3-triazole-3,19-diacetoxy-14-deoxy-andrographolide] | 1.8 ± 0.3 µM | 1.7 ± 0.3 µM | 4.5 ± 2 µM | 8.9 ± 0.2 µM | 6.9 ± 0.1 µM
C=C1CC[C@@H]2[C@](C)(COC(C)=O)[C@H](OC(C)=O)CC[C@@]2(C)[C@@H]1C[C@@H](C1=CCOC1=O)n1cc(-c2ccncc2)nn1 [Compound 23, (12S)-4-(4-pyridine)-1,2,3-triazole-3,19-diacetoxy-14-deoxy-andrographolide] | 3.3 ± 1 µM | 2.8 ± 0.8 µM | 6.3 ± 1.9 µM | 4.1 ± 0.9 µM | 11 ± 0.2 µM
C=C1CC[C@@H]2[C@](C)(COC(C)=O)[C@H](OC(C)=O)CC[C@@]2(C)[C@@H]1C[C@H](C1=CCOC1=O)n1cc(-c2ccc(OC)cc2)nn1 [Compound 16, (12R)-4-(4-methoxyphenyl)-1,2,3-triazole-3,19-diacetoxy-14-deoxy-andrographolide] | 1.5 ± 0.2 µM | 2.3 ± 0.9 µM | 2.3 ± 0.2 µM | 6.8 ± 1 µM | 9.3 ± 0.1 µM
